We go through two compounds from patent US9682013B2, “Pharmaceutical compositions comprising human antibodies to PCSK9” (SANOFI BIOTECHNOLOGY, priority 2011, dated 2017).

Test [1] has as its system patients with genotype-confirmed hoFH. Particulars: ezetimibe 10 mg/day added to maximal dose of statins; cited from earlier work.
Test [2] concerns patients with an elevated LDL-C (≧100 mg/dL or 2.59 mmol/L) treated with a stable dose of atorvastatin 10 mg. Nature of the test: Study 2: randomized, double-blind, placebo-controlled 8-week study of 316P 150 mg E2W with atorvastatin 10 mg or 80 mg. The format is in vivo, human. Particulars: placebo+atorvastatin 80 mg group, previously on atorvastatin 10 mg. The protocol: This was a randomized, double-blind, 3-parallel-groups, placebo-controlled, fixed dose/dose regimen, multicenter, 8-week study in subjects with primary hypercholesterolemia, aged 18-75 years. One aim of this study was to assess the efficacy and safety of 316P in patients with an elevated LDL-C (≧100 mg/dL or 2.59 mmol/L) treated with a stable dose of atorvastatin 10 mg.
During the screening period, patients had to be stabilized to atorvastatin 10 mg for at least 6 weeks, if they are not already. Then, after 1 additional screening week, patients were centrally randomized via IVRS/IWRS in a 1:1:1 ratio to one of the 3 treatment groups (placebo for 316P+atorvastatin 80 mg, 316P 150 mg E2W+atorvastatin 80 mg, 316P 150 mg E2W+atorvastatin 10 mg) and treated in a double-blind manner for approximately 8 weeks. 316P was administered every 2 weeks on site trough subcutaneous injection and atorvastatin was administered orally once daily in the evening at home. The double-blind treatment period was then followed by an 8-week follow-up period.
Inclusion criteria: • Patients (patients receiving a lipid lowering treatment other than atorvastatin/or not at stable dose of atorvastatin 10 mg for at least 6 weeks prior to screening period, or drug naive patients) with primary hypercholesterolemia likely to have low-density lipoprotein cholesterol (LDL-C)≧100 mg/dL (≧2.59 mmol/L) at the end of the run-in period on atorvastatin therapy (Week-1). • OR • Patients with primary hypercholesterolemia treated with stable dose of atorvastatin 10 mg for at least 6 weeks prior to screening period and likely to have low-density lipoprotein cholesterol (LDL-C)≧100 mg/dL (≧2.59 mmol/L) at the screening visit (Week-1).
Duration of Study Period Per Subject:
• Arm 1: The first group of patients receives one subcutaneous injection of 1 mL of antibody 316P, administered in the abdomen every two weeks, with a dose regimen at 150 mg, for a double-blind treatment period of 8 weeks; • Atorvastatin is administered once per day at a stable dose of 10 mg as background therapy. • Atorvastatin is administered at a dose of 80 mg once during the double-blind treatment period of 8 weeks. • Arm 2: The second group of patients receives one subcutaneous injection of 1 mL of a placebo solution, administered in the abdomen every two weeks, with a dose regimen at 150 mg, for a double-blind treatment period of 8 weeks; • Atorvastatin is administered once per day at a stable dose of 10 mg as background therapy. • Atorvastatin is administered at a dose of 80 mg (2 over-encapsulated atorvastatin 40 mg tablets) once during the double-blind treatment period of 8 weeks. • Arm 3: The third group of patients receives one subcutaneous injection of 1 mL of antibody 316P, administered in the abdomen every two weeks, with a dose regimen at 150 mg, for a double-blind treatment period of 8 weeks; • Atorvastatin is administered once per day at a stable dose of 10 mg as background therapy. • Atorvastatin is administered at a dose of 10 mg (1 over-encapsulated atorvastatin 10 mg tablet+1 matching placebo tablet) once during the double-blind treatment period of 8 weeks. Primary and Key Secondary Endpoints Primary Endpoints
The primary efficacy variable is the percent change in calculated LDL-C from baseline to Week 8, which is defined as: 100×(calculated LDL-C value at Week 8-calculated LDL-C value at baseline)/calculated LDL-C value at baseline.
In case of unavailable calculated LDL-C value at Week 8 as defined above, then the last calculated LDL-C value measured during the efficacy period and before the Week 8 time window was used to impute the missing Week 8 calculated LDL-C value (Last Observation Carried Forward [LOCF] procedure). […]

The test system of test [3] is male Syrian hamster. Description: Study 4: cholesterol lowering effect of 316P alone and with atorvastatin in hamster. The format is in vivo. Particulars: treatment alone up to the maximal tolerated dose. The text has this:
This is an animal study on the cholesterol lowering effect of 316P, a fully human PCSK9 blocking monoclonal antibody in male Syrian hamster
The aim of this study was to investigate the effect of 316P, a human monoclonal antibody to human PCSK9, alone and in combination with statins on expression of the hepatic LDLR and the resulting effects on serum LDL-C.
The maximal effect on LDL-C (−17/−27/−60%) was seen within 7 days. PK data of 316P are in line with the dose-dependent effect on LDL-C.

`O=C1[C@H](CC[C@H](O)c2ccc(F)cc2)[C@@H](c2ccc(O)cc2)N1c1ccc(F)cc1` [ezetimibe]: the “total reduction of LDL-C levels” value in test [1] is 27%.

As for `CC(C)c1c(C(=O)Nc2ccccc2)c(-c2ccccc2)c(-c2ccc(F)cc2)n1CC[C@@H](O)C[C@@H](O)CC(=O)O` [atorvastatin, reference compound], in test [2], the “median reduction from baseline in LDL-C at 8 weeks” value is on record as −26.9%. In test [3], the LDL-C entry is listed as “did not decrease LDL-C” and the “hepatic LDLR expression” value is “no effect”.
